Measurements taken from patent US12043632B2, “6-heteroaryloxy benzimidazoles and azabenzimidazoles as JAK2 inhibitors” (Ajax Therapeutics, Inc., priority 2020, dated 2024).
pKd: −log10 of the molar value.

Target: T1, JAK2 (JH1domain-catalytic, Y1007F,Y1008F) kinase (Homo sapiens, UniProt O60674, Y1007F/Y1008F)
T1 construct: JAK2 (JH1domain-catalytic, Y1007F,Y1008F) kinase was expressed as N-terminal fusion; made in house; host or cells: transiently transfected HEK293 cells
Experiment: JAK2 JH1 Domain Binding Assay
Conditions: qPCR readout

T1 sequence (O60674 849-1124 Y1007F/Y1008F limits assumed): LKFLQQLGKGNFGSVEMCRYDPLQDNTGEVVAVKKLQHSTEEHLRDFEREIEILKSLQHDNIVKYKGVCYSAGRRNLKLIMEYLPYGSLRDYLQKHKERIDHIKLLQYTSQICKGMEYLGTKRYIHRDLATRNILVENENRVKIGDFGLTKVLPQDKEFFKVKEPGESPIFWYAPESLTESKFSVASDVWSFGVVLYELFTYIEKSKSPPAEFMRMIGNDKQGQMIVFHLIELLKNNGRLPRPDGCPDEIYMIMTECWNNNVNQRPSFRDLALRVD

Q: How did the pKd turn out when `CN1C(=O)c2cc(Nc3nc4ncc(Oc5cnn6ccncc56)c(Cl)c4n3C)cc(C(F)(F)F)c2C1(C)C` [Example I-154, 6-((7-chloro-1-methyl-6-(pyrazolo[1,5-a]pyrazin-3-yloxy)-1H-imidazo[4,5-b]pyridin-2-yl)amino)-2,3,3-trimethyl-4-(trifluoromethyl)isoindolin-1-one] was run?
A: > 8.00

Q: With `CN1CCCCC1COc1cc(Nc2nc3ncc(Oc4cnn5ccncc45)c(Cl)c3n2C)cc(C(F)(F)F)c1` (single isomer, unassigned) [Example I-350-a] as the molecule, how does the pKd read?
A: > 8.00

Q: `Cn1c(Nc2cc(C(F)(F)F)cn([C@H]3C[C@@H](O)C3)c2=O)nc2ncc(Oc3cnn4ccc(F)cc34)c(Cl)c21` [Example I-213, cis-3-((7-chloro-6-((5-fluoropyrazolo[1,5-a]pyridin-3-yl)oxy)-1-methyl-1H-imidazo[4,5-b]pyridin-2-yl)amino)-1-(3-hydroxycyclobutyl)-5-(trifluoromethyl)pyridin-2(1H)-one] was tested. Which pKd did it give?
A: 7.30 to 8.00

Q: With `COc1c(Oc2cnn3ccncc23)cnc2nc(Nc3cc(C4CC4)cn([C@@H]4CC[C@@H]4O)c3=O)n(C)c12` (single isomer, unassigned) [Example I-104-a] as the molecule, how does the pKd read?
A: > 8.00

Q: With `CN1CCN(c2cc(Nc3nc4ncc(Oc5cnn6ccncc56)c(Cl)c4n3C)cc(C(F)(F)F)c2)CC1` [Example I-172, 7-chloro-1-methyl-N-(3-(4-methylpiperazin-1-yl)-5-(trifluoromethyl)phenyl)-6-(pyrazolo[1,5-a]pyrazin-3-yloxy)-1H-imidazo[4,5-b]pyridin-2-amine] as the molecule, how does the pKd read?
A: > 8.00

Q: `Cn1cc(C(F)(F)F)cc(Nc2nc3ncc(Oc4cnn5ccnc(O[C@H]6CC[C@@H]6O)c45)c(Cl)c3n2C)c1=O` (single isomer, unassigned) [Example I-139-b] was tested. Which pKd did it give?
A: > 8.00

Q: How did the pKd turn out when `Cn1c(Nc2cc(N3CCC(O)C3)cc(C(F)(F)F)c2)nc2ncc(Oc3cnn4ccncc34)c(Cl)c21` (stereo in doubt) [Example I-239, (S)-1-(3-((7-chloro-1-methyl-6-(pyrazolo[1,5-a]pyrazin-3-yloxy)-1H-imidazo[4,5-b]pyridin-2-yl)amino)-5-(trifluoromethyl)phenyl)pyrrolidin-3-ol] was run?
A: > 8.00

Q: `Cn1c(Nc2cc(C(C)(C)C)n([C@H]3COC[C@@H]3O)n2)nc2ncc(Oc3cnc4cnc(C5CC5)n4c3)c(C(F)F)c21` (single isomer, unassigned) [Example I-93-a] was tested. Which pKd did it give?
A: 7.30 to 8.00

Q: With `CN1CC[C@H](Oc2cc(Nc3nc4ncc(Oc5cnn6ccncc56)c(Cl)c4n3C)cc(C(F)(F)F)c2)C1` [Example I-210, (S)-7-chloro-1-methyl-N-(3-((1-methylpyrrolidin-3-yl)oxy)-5-(trifluoromethyl)phenyl)-6-(pyrazolo[1,5-a]pyrazin-3-yloxy)-1H-imidazo[4,5-b]pyridin-2-amine] as the molecule, how does the pKd read?
A: > 8.00

Q: How did the pKd turn out when `CNc1cn2ncc(Oc3cnc4nc(Nc5ccc(CN6CC[C@@H](OC)C6)c(C(F)(F)F)c5)n(C)c4c3Cl)c2cn1` [Example I-361, (R)-7-chloro-N-(4-((3-methoxypyrrolidin-1-yl)methyl)-3-(trifluoromethyl)phenyl)-1-methyl-6-((6-(methylamino)pyrazolo[1,5-a]pyrazin-3-yl)oxy)-1H-imidazo[4,5-b]pyridin-2-amine] was run?
A: 6.00 to 7.30

Q: With `Cn1cc(C(F)(F)F)cc(Nc2nc3ncc(Oc4cnn5cc(NCCN6CCC(F)(F)C6)ncc45)c(Cl)c3n2C)c1=O` [Example I-403, 3-((7-chloro-6-((6-((2-(3,3-difluoropyrrolidin-1-yl)ethyl)amino)pyrazolo[1,5-a]pyrazin-3-yl)oxy)-1-methyl-1H-imidazo[4,5-b]pyridin-2-yl)amino)-1-methyl-5-(trifluoromethyl)pyridin-2(1H)-one] as the molecule, how does the pKd read?
A: > 8.00

Q: How did the pKd turn out when `COCCOc1nccn2ncc(Oc3cnc4nc(Nc5cc(C6CC6)cn(C)c5=O)n(C)c4c3Cl)c12` [Example I-135, 3-((7-chloro-6-((4-(2-methoxyethoxy)pyrazolo[1,5-a]pyrazin-3-yl)oxy)-1-methyl-1H-imidazo[4,5-b]pyridin-2-yl)amino)-5-cyclopropyl-1-methylpyridin-2(1H)-one] was run?
A: > 8.00

Q: `Cn1c(Nc2cc(C(F)(F)F)cn(CCCN3CCC(F)(F)C3)c2=O)nc2ncc(Oc3cnn4ccncc34)c(Cl)c21` [Example I-118, 3-((7-chloro-1-methyl-6-(pyrazolo[1,5-a]pyrazin-3-yloxy)-1H-imidazo[4,5-b]pyridin-2-yl)amino)-1-(3-(3,3-difluoropyrrolidin-1-yl)propyl)-5-(trifluoromethyl)pyridin-2(1H)-one] was tested. Which pKd did it give?
A: 7.30 to 8.00

Q: How did the pKd turn out when `Cn1cc(C(F)(F)F)cc(Nc2nc3ncc(Oc4cnc5[nH]cc(F)c5c4)c(Cl)c3n2C)c1=O` [Example I-288, 3-((7-chloro-6-((3-fluoro-1H-pyrrolo[2,3-b]pyridin-5-yl)oxy)-1-methyl-1H-imidazo[4,5-b]pyridin-2-yl)amino)-1-methyl-5-(trifluoromethyl)pyridin-2(1H)-one] was run?
A: 7.30 to 8.00

Q: How did the pKd turn out when `Cn1c(Nc2cc(CN3CC(O)C3)cc(C(F)(F)F)c2)nc2ncc(Oc3cnn4ccncc34)c(Cl)c21` [Example I-258, 1-(3-((7-chloro-1-methyl-6-(pyrazolo[1,5-a]pyrazin-3-yloxy)-1H-imidazo[4,5-b]pyridin-2-yl)amino)-5-(trifluoromethyl)benzyl)azetidin-3-ol] was run?
A: > 8.00

Q: How did the pKd turn out when `COc1c(Oc2cnn3ccccc23)cnc2nc(Nc3cc(C4CC4)cn([C@@H]4CC[C@@H]4O)c3=O)n(C)c12` (single isomer, unassigned) [Example I-131-a] was run?
A: > 8.00

Q: `CN1CC[C@@H](n2nc(Nc3nc4ncc(Oc5cnn6ccnc6c5)c(Cl)c4n3C)cc2C(C)(C)C)C1` [Example I-36, (R)—N-(5-(tert-butyl)-1-(1-methylpyrrolidin-3-yl)-1H-pyrazol-3-yl)-7-chloro-6-(imidazo[1,2-b]pyridazin-7-yloxy)-1-methyl-1H-imidazo[4,5-b]pyridin-2-amine] was tested. Which pKd did it give?
A: 6.00 to 7.30

Q: How did the pKd turn out when `COc1ccc2c(Oc3cnc4nc(Nc5cc6n(n5)CCCC6(F)F)n(C)c4c3C#N)cnn2c1` [Example I-374, 2-((4,4-difluoro-4,5,6,7-tetrahydropyrazolo[1,5-a]pyridin-2-yl)amino)-6-((6-methoxypyrazolo[1,5-a]pyridin-3-yl)oxy)-1-methyl-1H-imidazo[4,5-b]pyridine-7-carbonitrile] was run?
A: > 8.00

Q: `Cn1cc(C(F)(F)F)cc(Nc2nc3ncc(Oc4cnn5cc(OCCN6CCOCC6)ccc45)c(C#N)c3n2C)c1=O` [Example I-336, 1 1-methyl-2-((1-methyl-2-oxo-5-(trifluoromethyl)-1,2-dihydropyridin-3-yl)amino)-6-((6-(2-morpholinoethoxy)pyrazolo[1,5-a]pyridin-3-yl)oxy)-1H-imidazo[4,5-b]pyridine-7-carbonitrile] was tested. Which pKd did it give?
A: > 8.00

Q: How did the pKd turn out when `Cn1c(Nc2cc(C(C)(C)C)n([C@@H]3CC[C@@H]3O)n2)nc2ncc(Oc3cnn4ccncc34)c(Cl)c21` (single isomer, unassigned) [Example I-147-b] was run?
A: > 8.00

Q: `Cn1c(Nc2cc(C(F)(F)F)cn([C@@H]3CCCOC3)c2=O)nc2ncc(Oc3cnn4ccncc34)c(Cl)c21` (single isomer, unassigned) [Example I-107-a] was tested. Which pKd did it give?
A: > 8.00

Q: `Cn1c(Nc2cc(C(F)(F)F)cn(CCO)c2=O)nc2ncc(Oc3cnn4ccccc34)c(C#N)c21` [Example I-160, 2-((1-(2-hydroxyethyl)-2-oxo-5-(trifluoromethyl)-1,2-dihydropyridin-3-yl)amino)-1-methyl-6-(pyrazolo[1,5-a]pyridin-3-yloxy)-1H-imidazo[4,5-b]pyridine-7-carbonitrile] was tested. Which pKd did it give?
A: > 8.00

Q: How did the pKd turn out when `COCCOc1ccc2c(Oc3cnc4nc(Nc5cc(C6CC6)nn(CCO)c5=O)n(C)c4c3Cl)cnn2c1` [Example I-153, 4-((7-chloro-6-((6-(2-methoxyethoxy)pyrazolo[1,5-a]pyridin-3-yl)oxy)-1-methyl-1H-imidazo[4,5-b]pyridin-2-yl)amino)-6-cyclopropyl-2-(2-hydroxyethyl)pyridazin-3(2H)-one] was run?
A: > 8.00

Q: `CNc1nccn2ncc(Oc3cnc4nc(Nc5cc(C(F)(F)F)cn(C)c5=O)n(C)c4c3C#N)c12` [Example I-193, 1-methyl-2-((1-methyl-2-oxo-5-(trifluoromethyl)-1,2-dihydropyridin-3-yl)amino)-6-((4-(methylamino)pyrazolo[1,5-a]pyrazin-3-yl)oxy)-1H-imidazo[4,5-b]pyridine-7-carbonitrile] was tested. Which pKd did it give?
A: > 8.00

Q: `CN1CCCC1c1ccc(Nc2nc3ncc(Oc4cnn5ccncc45)c(Cl)c3n2C)cc1C(F)(F)F` (single isomer, unassigned) [Example I-343] was tested. Which pKd did it give?
A: > 8.00

Q: `Cn1c(Nc2cc(N3CCC(O)CC3)cc(C(F)(F)F)c2)nc2ncc(Oc3cnn4ccncc34)c(Cl)c21` [Example I-237, 1-(3-((7-chloro-1-methyl-6-(pyrazolo[1,5-a]pyrazin-3-yloxy)-1H-imidazo[4,5-b]pyridin-2-yl)amino)-5-(trifluoromethyl)phenyl)piperidin-4-ol] was tested. Which pKd did it give?
A: 7.30 to 8.00

Q: How did the pKd turn out when `CN1CCC[C@@H]1c1cc(Nc2nc3ncc(Oc4cnn5ccncc45)c(Cl)c3n2C)cc(C(F)(F)F)c1` (single isomer, unassigned) [Example I-270-a] was run?
A: > 8.00

Q: With `Cn1c(Nc2cc(CN3CCCC3)cc(C(F)(F)F)c2)nc2ncc(Oc3cnn4ccncc34)c(Cl)c21` [Example I-277, 7-chloro-1-methyl-6-(pyrazolo[1,5-a]pyrazin-3-yloxy)-N-(3-(pyrrolidin-1-ylmethyl)-5-(trifluoromethyl)phenyl)-1H-imidazo[4,5-b]pyridin-2-amine] as the molecule, how does the pKd read?
A: > 8.00

Q: `CNc1cn2ncc(Oc3cnc4nc(Nc5cc(C(F)(F)F)n(C6CC7(COC7)C6)n5)n(C)c4c3Cl)c2cn1` [Example I-310, N-(1-(2-oxaspiro[3.3]heptan-6-yl)-5-(trifluoromethyl)-1H-pyrazol-3-yl)-7-chloro-1-methyl-6-((6-(methylamino)pyrazolo[1,5-a]pyrazin-3-yl)oxy)-1H-imidazo[4,5-b]pyridin-2-amine] was tested. Which pKd did it give?
A: 6.00 to 7.30

Q: How did the pKd turn out when `Cn1c(Nc2cc(C(C)(C)C)n([C@H]3CC[C@H]3O)n2)nc2ncc(Oc3cnn4ccncc34)c(Cl)c21` (single isomer, unassigned) [Example I-147-a] was run?
A: > 8.00
